Assay results: patent publication US9884125B2, “Glucose-responsive insulin conjugates” (Merck Sharp & Dohme Corp., priority 2013, dated 2018)

Molecular target: T1, Human macrophage mannose receptor 1 (MRC1) (Homo sapiens, UniProt P22897)
T1 sequence (P22897 19-1456): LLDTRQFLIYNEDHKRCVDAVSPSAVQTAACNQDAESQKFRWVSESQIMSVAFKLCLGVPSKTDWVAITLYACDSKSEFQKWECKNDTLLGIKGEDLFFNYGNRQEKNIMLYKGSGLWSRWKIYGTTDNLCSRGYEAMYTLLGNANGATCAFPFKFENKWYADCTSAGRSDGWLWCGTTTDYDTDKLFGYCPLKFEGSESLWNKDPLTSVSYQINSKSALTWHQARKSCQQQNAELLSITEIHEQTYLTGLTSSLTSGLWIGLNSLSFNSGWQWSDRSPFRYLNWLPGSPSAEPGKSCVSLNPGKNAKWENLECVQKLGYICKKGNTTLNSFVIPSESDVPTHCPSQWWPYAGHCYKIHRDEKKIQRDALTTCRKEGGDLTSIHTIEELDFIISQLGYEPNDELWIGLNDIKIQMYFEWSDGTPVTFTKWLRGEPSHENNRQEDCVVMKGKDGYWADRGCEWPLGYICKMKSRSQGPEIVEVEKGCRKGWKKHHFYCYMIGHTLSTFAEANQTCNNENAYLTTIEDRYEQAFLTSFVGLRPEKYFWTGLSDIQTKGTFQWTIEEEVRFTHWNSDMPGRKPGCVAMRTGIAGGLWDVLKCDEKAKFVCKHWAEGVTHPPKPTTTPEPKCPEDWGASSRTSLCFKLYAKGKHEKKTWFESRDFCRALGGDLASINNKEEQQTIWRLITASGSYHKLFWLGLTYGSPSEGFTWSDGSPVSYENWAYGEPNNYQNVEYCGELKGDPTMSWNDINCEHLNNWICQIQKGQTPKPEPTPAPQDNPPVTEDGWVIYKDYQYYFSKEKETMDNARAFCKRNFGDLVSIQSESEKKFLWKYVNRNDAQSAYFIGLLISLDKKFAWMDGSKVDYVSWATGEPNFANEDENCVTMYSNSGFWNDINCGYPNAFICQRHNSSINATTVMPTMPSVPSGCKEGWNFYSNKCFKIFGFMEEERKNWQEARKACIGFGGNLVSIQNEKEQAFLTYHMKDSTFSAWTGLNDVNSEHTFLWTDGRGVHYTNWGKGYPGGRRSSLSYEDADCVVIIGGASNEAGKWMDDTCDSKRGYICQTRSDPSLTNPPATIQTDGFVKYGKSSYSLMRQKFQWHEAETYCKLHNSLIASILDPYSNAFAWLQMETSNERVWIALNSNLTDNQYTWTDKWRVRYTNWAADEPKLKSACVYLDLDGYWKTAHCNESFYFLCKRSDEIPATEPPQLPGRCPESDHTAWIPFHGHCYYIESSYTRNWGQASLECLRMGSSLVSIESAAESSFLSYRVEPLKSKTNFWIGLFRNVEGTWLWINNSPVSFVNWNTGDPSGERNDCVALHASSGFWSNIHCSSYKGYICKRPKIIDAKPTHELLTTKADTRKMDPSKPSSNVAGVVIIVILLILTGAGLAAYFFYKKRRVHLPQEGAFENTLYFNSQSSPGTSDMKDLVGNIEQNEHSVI
Test: MRC1 competition binding assay (Eu-mannosylated-BSA), Method F: 96-well, manual liquid dispense
Conditions: read-out: MRC1 Binding IP (inflection point, corresponds to IC50)
Protocol: The competition binding assay for MRC1 utilized a ligand, mannosylated-BSA labeled with the DELFIA Eu-N1-ITC reagent, as reported in the literature. […] The antibody was incubated in the plate for 1 hr at room temperature with shaking. The plate was washed with wash buffer 3-5 times followed by addition of MRC1 (2 ng/μl final concentration) in 25 μl PBS containing 1% stabilizer BSA. The plate was incubated at room temperature with gentle shaking for 1 hr. The plate was washed three times with wash buffer. […]
Their in vitro biological activities towards insulin receptor (IR) were measured by either ligand competition assays or functional phosphorylation assays, as described above, labeled as following: Method A: IR phosphorylation assay based on 96-well with manual liquid dispense; Method B: IR phosphorylation assay based on 96-well with automated liquid dispense; Method C: IR phosphorylation assay based on 384-well with automated liquid dispense; Method D: IR binding assay method D; Method E: IR binding assay method E; Method F: MRC1 assay was performed in a 96-well plate with a manual liquid dispense; Method G: MRC1 assay was performed in a 96-well plate with an automated liquid dispense; Method H: MRC1 assay was performed in a 384-well plate with an automated dispense.

Row | SMILES | IC50
1 | CC[C@H](C)[C@H](NC(=O)CN)C(=O)N[C@H](C(=O)N[C@@H](CCC(=O)O)C(=O)N[C@@H](CCC(N)=O)C(=O)N[C@H]1CSSC[C@@H]2NC(=O)[C@H]([C@@H](C)CC)NC(=O)[C@H](CO)NC(=O)[C@H]([C@@H](C)O)NC(=O)[C@H](CSSC[C@H](NC(=O)[C@H](CC(C)C)NC(=O)[C@H](Cc3c[nH]cn3)NC(=O)[C@H](CCC(N)=O)NC(=O)[C@H](CC(N)=O)NC(=O)[C@@H](NC(=O)[C@@H](N)Cc3ccccc3)C(C)C)C(=O)NCC(=O)N[C@@H](CO)C(=O)N[C@@H](Cc3c[nH]cn3)C(=O)N[C@@H](CC(C)C)C(=O)N[C@@H](C(C)C)C(=O)N[C@@H](CCC(=O)O)C(=O)N[C@@H](C)C(=O)N[C@@H](CC(C)C)C(=O)N[C@@H](Cc3ccc(O)cc3)C(=O)N[C@@H](CC(C)C)C(=O)N[C@@H](C(C)C)C(=O)N[C@H](C(=O)NCC(=O)N[C@@H](CCC(=O)O)C(=O)N[C@@H](CCCNC(=N)N)C(=O)NCC(=O)N[C@@H](Cc3ccccc3)C(=O)N[C@@H](Cc3ccccc3)C(=O)N[C@@H](Cc3ccc(O)cc3)C(=O)N[C@H](C(=O)N3CCC[C@H]3C(=O)N[C@@H](CCCCNC(=O)CCCCC(=O)N(CC(=O)NCCO[C@@H]3O[C@@H](C)[C@@H](O)[C@@H](O)[C@@H]3O)CC(=O)NCCO[C@@H]3O[C@@H](C)[C@@H](O)[C@@H](O)[C@@H]3O)C(=O)N[C@H](C(=O)O)[C@@H](C)O)[C@@H](C)O)CSSC[C@@H](C(=O)N[C@@H](CC(N)=O)C(=O)O)NC(=O)[C@H](Cc3ccc(O)cc3)NC(=O)[C@H](CC(N)=O)NC(=O)[C@H](CCC(=O)O)NC(=O)[C@H](CC(C)C)NC(=O)[C@H](CCC(N)=O)NC(=O)[C@H](Cc3ccc(O)cc3)NC(=O)[C@H](CC(C)C)NC(=O)[C@H](CO)NC2=O)NC1=O)C(C)C [IOC-12] | 92.5 nM
2 | CC[C@H](C)[C@H](NC(=O)CNC(=O)CCCCC(=O)N(CC(=O)NCCO[C@@H]1O[C@@H](C)[C@@H](O)[C@@H](O)[C@@H]1O)CC(=O)NCCO[C@@H]1O[C@@H](C)[C@@H](O)[C@@H](O)[C@@H]1O)C(=O)N[C@H](C(=O)N[C@@H](CCC(=O)O)C(=O)N[C@@H](CCC(N)=O)C(=O)N[C@H]1CSSC[C@@H]2NC(=O)[C@H]([C@@H](C)CC)NC(=O)[C@H](CO)NC(=O)[C@H]([C@@H](C)O)NC(=O)[C@H](CSSC[C@H](NC(=O)[C@H](CC(C)C)NC(=O)[C@H](Cc3c[nH]cn3)NC(=O)[C@H](CCC(N)=O)NC(=O)[C@H](CC(N)=O)NC(=O)[C@@H](NC(=O)[C@@H](N)Cc3ccccc3)C(C)C)C(=O)NCC(=O)N[C@@H](CO)C(=O)N[C@@H](Cc3c[nH]cn3)C(=O)N[C@@H](CC(C)C)C(=O)N[C@@H](C(C)C)C(=O)N[C@@H](CCC(=O)O)C(=O)N[C@@H](C)C(=O)N[C@@H](CC(C)C)C(=O)N[C@@H](Cc3ccc(O)cc3)C(=O)N[C@@H](CC(C)C)C(=O)N[C@@H](C(C)C)C(=O)N[C@H](C(=O)NCC(=O)N[C@@H](CCC(=O)O)C(=O)N[C@@H](CCCNC(=N)N)C(=O)NCC(=O)N[C@@H](Cc3ccccc3)C(=O)N[C@@H](Cc3ccccc3)C(=O)N[C@@H](Cc3ccc(O)cc3)C(=O)N[C@H](C(=O)N3CCC[C@H]3C(=O)N[C@@H](CCCCN)C(=O)N[C@H](C(=O)O)[C@@H](C)O)[C@@H](C)O)CSSC[C@@H](C(=O)N[C@@H](CC(N)=O)C(=O)O)NC(=O)[C@H](Cc3ccc(O)cc3)NC(=O)[C@H](CC(N)=O)NC(=O)[C@H](CCC(=O)O)NC(=O)[C@H](CC(C)C)NC(=O)[C@H](CCC(N)=O)NC(=O)[C@H](Cc3ccc(O)cc3)NC(=O)[C@H](CC(C)C)NC(=O)[C@H](CO)NC2=O)NC1=O)C(C)C [IOC-13] | 107 nM
